Assay results taken from the NIST ThermoML archive (doi:10.1021/je400056z).
Numbers after ± are expanded uncertainties.

Test: xn = mol fraction of the nth substance listed
Conditions: Liquid, Vibrating tube method

CCCCCCCCCCCCC [tridecane] + O=C=O
Conditions	mass density [kg/m3]
313.15 K, 9000 kPa, x2 = 0.0955	750.6 ± 0.3
313.15 K, 9000 kPa, x2 = 0.2526	754.3 ± 0.3
313.15 K, 9000 kPa, x2 = 0.7549	791.4 ± 0.3
313.15 K, 9000 kPa, x2 = 0.8978	790.8 ± 0.3
313.15 K, 10000 kPa, x2 = 0.0955	751.4 ± 0.3
313.15 K, 10000 kPa, x2 = 0.2526	755.1 ± 0.3
313.15 K, 10000 kPa, x2 = 0.7549	794.4 ± 0.3
313.15 K, 10000 kPa, x2 = 0.8978	795.2 ± 0.3
313.15 K, 11000 kPa, x2 = 0.0955	752.2 ± 0.3
313.15 K, 11000 kPa, x2 = 0.2526	756 ± 0.3
313.15 K, 11000 kPa, x2 = 0.7549	797.7 ± 0.3
313.15 K, 11000 kPa, x2 = 0.8978	799.4 ± 0.3
313.15 K, 12000 kPa, x2 = 0.0955	753 ± 0.3
313.15 K, 12000 kPa, x2 = 0.2526	756.8 ± 0.3
313.15 K, 12000 kPa, x2 = 0.7549	800.8 ± 0.3
313.15 K, 12000 kPa, x2 = 0.8978	803.7 ± 0.3
313.15 K, 13000 kPa, x2 = 0.0955	753.7 ± 0.4
313.15 K, 13000 kPa, x2 = 0.2526	757.6 ± 0.3
313.15 K, 13000 kPa, x2 = 0.7549	803.7 ± 0.3
313.15 K, 13000 kPa, x2 = 0.8978	807.9 ± 0.3
313.15 K, 14000 kPa, x2 = 0.0955	754.5 ± 0.4
313.15 K, 14000 kPa, x2 = 0.2526	758.4 ± 0.3
313.15 K, 14000 kPa, x2 = 0.7549	806.6 ± 0.3
313.15 K, 14000 kPa, x2 = 0.8978	812 ± 0.3
313.15 K, 15000 kPa, x2 = 0.0955	755.2 ± 0.4
313.15 K, 15000 kPa, x2 = 0.2526	759.2 ± 0.4
313.15 K, 15000 kPa, x2 = 0.7549	809.4 ± 0.3
313.15 K, 15000 kPa, x2 = 0.8978	815.9 ± 0.3
313.15 K, 16000 kPa, x2 = 0.0955	756 ± 0.4
313.15 K, 16000 kPa, x2 = 0.2526	759.9 ± 0.4
313.15 K, 16000 kPa, x2 = 0.7549	812.1 ± 0.3
313.15 K, 16000 kPa, x2 = 0.8978	819.5 ± 0.3
313.15 K, 17000 kPa, x2 = 0.0955	756.6 ± 0.4
313.15 K, 17000 kPa, x2 = 0.2526	760.7 ± 0.4
313.15 K, 17000 kPa, x2 = 0.7549	814.8 ± 0.3
313.15 K, 17000 kPa, x2 = 0.8978	823.1 ± 0.3
313.15 K, 18000 kPa, x2 = 0.0955	757.3 ± 0.4
313.15 K, 18000 kPa, x2 = 0.2526	761.4 ± 0.4
313.15 K, 18000 kPa, x2 = 0.7549	817.4 ± 0.3
313.15 K, 18000 kPa, x2 = 0.8978	826.6 ± 0.3
313.15 K, 19000 kPa, x2 = 0.0955	758 ± 0.4
313.15 K, 19000 kPa, x2 = 0.2526	762.1 ± 0.4
313.15 K, 19000 kPa, x2 = 0.7549	819.8 ± 0.3
313.15 K, 19000 kPa, x2 = 0.8978	830.1 ± 0.3
313.15 K, 20000 kPa, x2 = 0.0955	758.7 ± 0.4
313.15 K, 20000 kPa, x2 = 0.2526	762.8 ± 0.4
313.15 K, 20000 kPa, x2 = 0.7549	822.2 ± 0.3
313.15 K, 20000 kPa, x2 = 0.8978	833.3 ± 0.3
313.15 K, 21000 kPa, x2 = 0.0955	759.3 ± 0.4
313.15 K, 21000 kPa, x2 = 0.2526	763.5 ± 0.4
313.15 K, 21000 kPa, x2 = 0.7549	824.6 ± 0.3
313.15 K, 21000 kPa, x2 = 0.8978	836.4 ± 0.3
313.15 K, 22000 kPa, x2 = 0.0955	759.9 ± 0.4
313.15 K, 22000 kPa, x2 = 0.2526	764.2 ± 0.4
313.15 K, 22000 kPa, x2 = 0.7549	826.9 ± 0.3
313.15 K, 22000 kPa, x2 = 0.8978	839.5 ± 0.3
313.15 K, 23000 kPa, x2 = 0.0955	760.5 ± 0.4
313.15 K, 23000 kPa, x2 = 0.2526	764.8 ± 0.4
313.15 K, 23000 kPa, x2 = 0.7549	829.1 ± 0.3
313.15 K, 23000 kPa, x2 = 0.8978	842.6 ± 0.3
313.15 K, 24000 kPa, x2 = 0.0955	761.1 ± 0.4
313.15 K, 24000 kPa, x2 = 0.2526	765.4 ± 0.4
313.15 K, 24000 kPa, x2 = 0.7549	831.2 ± 0.3
313.15 K, 24000 kPa, x2 = 0.8978	845.4 ± 0.3
313.15 K, 25000 kPa, x2 = 0.0955	761.7 ± 0.4
313.15 K, 25000 kPa, x2 = 0.2526	766 ± 0.4
313.15 K, 25000 kPa, x2 = 0.7549	833.3 ± 0.3
313.15 K, 25000 kPa, x2 = 0.8978	848.2 ± 0.3
313.16 K, 8000 kPa, x2 = 0.5259	768.4 ± 0.3
313.16 K, 9000 kPa, x2 = 0.5259	769.6 ± 0.3
313.16 K, 10000 kPa, x2 = 0.5259	770.7 ± 0.3
313.16 K, 11000 kPa, x2 = 0.5259	771.9 ± 0.3
313.16 K, 12000 kPa, x2 = 0.5259	773 ± 0.3
313.16 K, 13000 kPa, x2 = 0.5259	774.1 ± 0.3
313.16 K, 14000 kPa, x2 = 0.5259	775.1 ± 0.3
313.16 K, 15000 kPa, x2 = 0.5259	776.2 ± 0.3
313.16 K, 16000 kPa, x2 = 0.5259	777.2 ± 0.3
313.16 K, 17000 kPa, x2 = 0.5259	778.2 ± 0.3
313.16 K, 18000 kPa, x2 = 0.5259	779.2 ± 0.3
313.16 K, 19000 kPa, x2 = 0.5259	780.2 ± 0.4
313.16 K, 20000 kPa, x2 = 0.5259	781.1 ± 0.4
313.16 K, 21000 kPa, x2 = 0.5259	782 ± 0.4
313.16 K, 23000 kPa, x2 = 0.5259	783.8 ± 0.4
313.16 K, 24000 kPa, x2 = 0.5259	784.6 ± 0.4
313.16 K, 25000 kPa, x2 = 0.5259	785.5 ± 0.4
323.14 K, 11000 kPa, x2 = 0.8978	772.5 ± 0.3
323.14 K, 12000 kPa, x2 = 0.8978	777.9 ± 0.3
323.14 K, 13000 kPa, x2 = 0.8978	782.8 ± 0.4
323.14 K, 14000 kPa, x2 = 0.8978	787.3 ± 0.4
323.14 K, 15000 kPa, x2 = 0.8978	791.5 ± 0.4
323.14 K, 16000 kPa, x2 = 0.8978	795.7 ± 0.4
323.14 K, 17000 kPa, x2 = 0.8978	799.7 ± 0.4
323.14 K, 18000 kPa, x2 = 0.8978	803.4 ± 0.3
323.14 K, 19000 kPa, x2 = 0.8978	807.2 ± 0.3
323.14 K, 20000 kPa, x2 = 0.8978	810.7 ± 0.3
323.14 K, 21000 kPa, x2 = 0.8978	814 ± 0.3
323.14 K, 22000 kPa, x2 = 0.8978	817.5 ± 0.3
323.14 K, 23000 kPa, x2 = 0.8978	820.7 ± 0.3
323.14 K, 24000 kPa, x2 = 0.8978	823.8 ± 0.3
323.14 K, 25000 kPa, x2 = 0.8978	826.7 ± 0.3
323.16 K, 9000 kPa, x2 = 0.0955	743.8 ± 0.3
323.16 K, 9000 kPa, x2 = 0.2526	747 ± 0.3
323.16 K, 10000 kPa, x2 = 0.0955	744.6 ± 0.3
323.16 K, 10000 kPa, x2 = 0.2526	747.9 ± 0.3
323.16 K, 11000 kPa, x2 = 0.0955	745.4 ± 0.3
323.16 K, 11000 kPa, x2 = 0.2526	748.7 ± 0.3
323.16 K, 11000 kPa, x2 = 0.7549	778.8 ± 0.4
323.16 K, 12000 kPa, x2 = 0.0955	746.2 ± 0.3
323.16 K, 12000 kPa, x2 = 0.2526	749.6 ± 0.3
323.16 K, 12000 kPa, x2 = 0.7549	781.9 ± 0.3
323.16 K, 13000 kPa, x2 = 0.0955	746.9 ± 0.4
323.16 K, 13000 kPa, x2 = 0.2526	750.4 ± 0.3
323.16 K, 13000 kPa, x2 = 0.7549	785.1 ± 0.3
323.16 K, 14000 kPa, x2 = 0.0955	747.7 ± 0.4
